ChEMBL document CHEMBL3769397, “A new GLP-1 analogue with prolonged glucose-lowering activity in vivo via backbone-based modification at the N-terminus” (Bioorg Med Chem, 2016)

What was measured:
[1] = biological target: T1, DPP4 (dipeptidyl peptidase 4) (Homo sapiens, UniProt P27487); experiment: Drug degradation assessed as recombinant human DPP4-mediated cleavage by measuring compound remaining after 8 hrs by RP-HPLC analysis; assay type: ADME; settings: read-out: Stability
[2] = biological target: T1, DPP4 (dipeptidyl peptidase 4); experiment: Drug degradation assessed as recombinant human DPP4-mediated cleavage by measuring compound remaining after 1 hr by RP-HPLC analysis; assay type: ADME; settings: read-out: Stability
[3] = biological target: T1, DPP4 (dipeptidyl peptidase 4); experiment: Drug degradation assessed as recombinant human DPP4-mediated cleavage by measuring compound remaining after 4 hrs by RP-HPLC analysis; assay type: ADME; settings: read-out: Stability
[4] = biological target: T1, DPP4 (dipeptidyl peptidase 4); experiment: Drug degradation assessed as recombinant human DPP4-mediated cleavage by measuring compound remaining after 2 hrs by RP-HPLC analysis; assay type: ADME; settings: read-out: Stability
[5] = Retention time of compound over 30 mins by HPLC analysis; assay type: physicochemical; settings: 0.5 h
[6] = biological target: T1, DPP4 (dipeptidyl peptidase 4); experiment: Half life of compound assessed as recombinant human DPP4-mediated cleavage by RP-HPLC analysis; assay type: ADME
[7] = biological target: T1, DPP4 (dipeptidyl peptidase 4); experiment: Drug degradation assessed as recombinant human DPP4-mediated cleavage by measuring compound remaining after 12 hrs by RP-HPLC analysis; assay type: ADME; settings: read-out: Stability

T1 sequence (P27487 whole entry): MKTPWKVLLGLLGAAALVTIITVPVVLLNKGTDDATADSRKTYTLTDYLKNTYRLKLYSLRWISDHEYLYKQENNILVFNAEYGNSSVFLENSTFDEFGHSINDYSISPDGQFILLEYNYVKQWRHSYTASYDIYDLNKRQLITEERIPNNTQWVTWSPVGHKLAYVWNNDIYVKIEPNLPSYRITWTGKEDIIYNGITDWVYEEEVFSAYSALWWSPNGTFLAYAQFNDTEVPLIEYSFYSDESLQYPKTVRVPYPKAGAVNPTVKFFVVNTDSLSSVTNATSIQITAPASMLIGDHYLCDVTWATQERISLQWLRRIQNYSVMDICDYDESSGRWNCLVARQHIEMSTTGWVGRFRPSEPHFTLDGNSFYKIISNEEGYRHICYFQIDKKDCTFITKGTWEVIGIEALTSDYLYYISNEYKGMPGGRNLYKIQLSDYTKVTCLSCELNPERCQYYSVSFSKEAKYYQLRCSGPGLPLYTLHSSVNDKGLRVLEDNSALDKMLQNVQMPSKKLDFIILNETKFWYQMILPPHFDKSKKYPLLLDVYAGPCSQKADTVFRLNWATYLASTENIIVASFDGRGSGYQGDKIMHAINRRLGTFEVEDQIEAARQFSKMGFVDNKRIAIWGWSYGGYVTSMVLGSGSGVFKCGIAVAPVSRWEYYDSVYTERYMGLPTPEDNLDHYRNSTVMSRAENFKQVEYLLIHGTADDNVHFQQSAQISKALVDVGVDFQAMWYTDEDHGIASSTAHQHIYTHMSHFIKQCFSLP

Structure (SMILES) | remaining at 8 h [1] [%] | remaining at 1 h [2] [%] | remaining at 4 h [3] [%] | remaining at 2 h [4] [%] | Retention_time [5] [min] | half-life [6] [h] | remaining at 12 h [7] [%]
CC[C@H](C)[C@H](NC(=O)[C@H](Cc1ccccc1)NC(=O)[C@H](CCC(=O)O)NC(=O)[C@H](CCCCN)NC(=O)[C@H](C)NC(=O)[C@H](C)NC(=O)[C@H](CCC(N)=O)NC(=O)CNC(=O)[C@H](CCC(=O)O)NC(=O)[C@H](CC(C)C)NC(=O)[C@H](Cc1ccc(O)cc1)NC(=O)[C@H](CO)NC(=O)[C@H](CO)NC(=O)[C@@H](NC(=O)[C@H](CC(=O)O)NC(=O)[C@H](CO)NC(=O)[C@@H](NC(=O)[C@H](Cc1ccccc1)NC(=O)[C@@H](NC(=O)CNC(=O)[C@H](CCC(=O)O)N(C)C(=O)[C@H](C)NC(=O)[C@@H](N)Cc1cnc[nH]1)[C@@H](C)O)[C@@H](C)O)C(C)C)C(=O)N[C@@H](C)C(=O)N[C@@H](Cc1c[nH]c2ccccc12)C(=O)N[C@@H](CC(C)C)C(=O)N[C@H](C(=O)N[C@@H](CCCCN)C(=O)NCC(=O)N[C@@H](CCCNC(=N)N)C(N)=O)C(C)C | 100 | 100 | 100 | 100 | 14.612 | > 96 | 100
CC[C@H](C)[C@H](NC(=O)[C@H](Cc1ccccc1)NC(=O)[C@H](CCC(=O)O)NC(=O)[C@H](CCCCN)NC(=O)[C@H](C)NC(=O)[C@H](C)NC(=O)[C@H](CCC(N)=O)NC(=O)CNC(=O)[C@H](CCC(=O)O)NC(=O)[C@H](CC(C)C)NC(=O)[C@H](Cc1ccc(O)cc1)NC(=O)[C@H](CO)NC(=O)[C@H](CO)NC(=O)[C@@H](NC(=O)[C@H](CC(=O)O)NC(=O)[C@H](CO)NC(=O)[C@@H](NC(=O)[C@H](Cc1ccccc1)NC(=O)[C@@H](NC(=O)CNC(=O)[C@H](CCC(=O)O)NC(=O)[C@H](C)N(C)C(=O)[C@@H](N)Cc1cnc[nH]1)[C@@H](C)O)[C@@H](C)O)C(C)C)C(=O)N[C@@H](C)C(=O)N[C@@H](Cc1c[nH]c2ccccc12)C(=O)N[C@@H](CC(C)C)C(=O)N[C@H](C(=O)N[C@@H](CCCCN)C(=O)NCC(=O)N[C@@H](CCCNC(=N)N)C(N)=O)C(C)C | 0 | 42.7 | 4.3 | 17.6 | 14.702 | 0.83 | 0
CC[C@H](C)[C@H](NC(=O)[C@H](Cc1ccccc1)NC(=O)[C@H](CCC(=O)O)NC(=O)[C@H](CCCCN)NC(=O)[C@H](C)NC(=O)[C@H](C)NC(=O)[C@H](CCC(N)=O)NC(=O)CNC(=O)[C@H](CCC(=O)O)NC(=O)[C@H](CC(C)C)NC(=O)[C@H](Cc1ccc(O)cc1)NC(=O)[C@H](CO)NC(=O)[C@H](CO)NC(=O)[C@@H](NC(=O)[C@H](CC(=O)O)NC(=O)[C@H](CO)NC(=O)[C@@H](NC(=O)[C@H](Cc1ccccc1)N(C)C(=O)[C@@H](NC(=O)CNC(=O)[C@H](CCC(=O)O)NC(=O)[C@H](C)NC(=O)[C@@H](N)Cc1cnc[nH]1)[C@@H](C)O)[C@@H](C)O)C(C)C)C(=O)N[C@@H](C)C(=O)N[C@@H](Cc1c[nH]c2ccccc12)C(=O)N[C@@H](CC(C)C)C(=O)N[C@H](C(=O)N[C@@H](CCCCN)C(=O)NCC(=O)N[C@@H](CCCNC(=N)N)C(=O)O)C(C)C | 17.6 | 79.4 | 42.7 | 66.3 | 14.127 | 3.46 | 6.1
CC[C@H](C)[C@H](NC(=O)[C@H](Cc1ccccc1)NC(=O)[C@H](CCC(=O)O)NC(=O)[C@H](CCCCN)NC(=O)[C@H](C)NC(=O)[C@H](C)NC(=O)[C@H](CCC(N)=O)NC(=O)CNC(=O)[C@H](CCC(=O)O)NC(=O)[C@H](CC(C)C)NC(=O)[C@H](Cc1ccc(O)cc1)NC(=O)[C@H](CO)NC(=O)[C@H](CO)NC(=O)[C@@H](NC(=O)[C@H](CC(=O)O)NC(=O)[C@H](CO)NC(=O)[C@@H](NC(=O)[C@H](Cc1ccccc1)NC(=O)[C@@H](NC(=O)CNC(=O)[C@H](CCC(=O)O)NC(=O)[C@H](C)NC(=O)[C@@H](N)Cc1c[nH]cn1)[C@@H](C)O)[C@@H](C)O)C(C)C)C(=O)N[C@@H](C)C(=O)N[C@@H](Cc1c[nH]c2ccccc12)C(=O)N[C@@H](CC(C)C)C(=O)N[C@H](C(=O)N[C@@H](CCCCN)C(=O)NCC(=O)N[C@@H](CCCNC(=N)N)C(N)=O)C(C)C |  |  |  |  | 14.611 |  | 
CC[C@H](C)[C@H](NC(=O)[C@H](Cc1ccccc1)NC(=O)[C@H](CCC(=O)O)NC(=O)[C@H](CCCCN)NC(=O)[C@H](C)NC(=O)[C@H](C)NC(=O)[C@H](CCC(N)=O)NC(=O)CNC(=O)[C@H](CCC(=O)O)NC(=O)[C@H](CC(C)C)NC(=O)[C@H](Cc1ccc(O)cc1)NC(=O)[C@H](CO)NC(=O)[C@H](CO)NC(=O)[C@@H](NC(=O)[C@H](CC(=O)O)NC(=O)[C@H](CO)NC(=O)[C@@H](NC(=O)[C@H](Cc1ccccc1)NC(=O)[C@H]([C@@H](C)O)N(C)C(=O)CNC(=O)[C@H](CCC(=O)O)NC(=O)[C@H](C)NC(=O)[C@@H](N)Cc1cnc[nH]1)[C@@H](C)O)C(C)C)C(=O)N[C@@H](C)C(=O)N[C@@H](Cc1c[nH]c2ccccc12)C(=O)N[C@@H](CC(C)C)C(=O)N[C@H](C(=O)N[C@@H](CCCCN)C(=O)NCC(=O)N[C@@H](CCCNC(=N)N)C(N)=O)C(C)C | 10.7 | 69.8 | 33.2 | 55.4 | 14.721 | 2.7 | 0
CC[C@H](C)[C@H](NC(=O)[C@H](Cc1ccccc1)NC(=O)[C@H](CCC(=O)O)NC(=O)[C@H](CCCCN)NC(=O)[C@H](C)NC(=O)[C@H](C)NC(=O)[C@H](CCC(N)=O)NC(=O)CNC(=O)[C@H](CCC(=O)O)NC(=O)[C@H](CC(C)C)NC(=O)[C@H](Cc1ccc(O)cc1)NC(=O)[C@H](CO)NC(=O)[C@H](CO)NC(=O)[C@@H](NC(=O)[C@H](CC(=O)O)NC(=O)[C@H](CO)NC(=O)[C@@H](NC(=O)[C@H](Cc1ccccc1)NC(=O)[C@@H](NC(=O)CN(C)C(=O)[C@H](CCC(=O)O)NC(=O)[C@H](C)NC(=O)[C@@H](N)Cc1cnc[nH]1)[C@@H](C)O)[C@@H](C)O)C(C)C)C(=O)N[C@@H](C)C(=O)N[C@@H](Cc1c[nH]c2ccccc12)C(=O)N[C@@H](CC(C)C)C(=O)N[C@H](C(=O)N[C@@H](CCCCN)C(=O)NCC(=O)N[C@@H](CCCNC(=N)N)C(N)=O)C(C)C | 15.1 | 75.1 | 32.6 | 55.5 | 14.289 | 2.42 | 7.5
